Structures can show the parent of a compound that is named as a salt.

Series [1] can be described thus: Characterization of salt form of compound A (properties of various salts, Table 8). It is filed as physicochemical. The conditions noted are these: determined by the height of the strongest peak in XRPD.
Series [2] in a line: in vivo. To be noted: male, SD, rat. The protocol:
Test objective: by giving test compounds to SD rats via single-dose intravenous and intragastric administration and measuring the concentrations of the test compounds in plasma of rats, the pharmacokinetic characteristics and bioavailability of the test compounds in rats were evaluated.
Test animal: male SD rats, about 220 g, 6-8 weeks old, 6 rats/compound, purchased from Chengdu Ddossy Experimental Animals Co., Ltd.
Test method: on the day of the test, 6 SD rats were randomly grouped according to their body weight; the animals were fasted with water available for 12 to 14 h one day before the administration, and were fed 4 h after the administration; and the administration was performed according to Table 10.
Before and after the administration, 0.1 mL of blood samples were drawn from the orbits of the animals under isoflurane anaesthesia, and placed in an EDTAK2 centrifuge tube. Centrifugation was performed at 5000 rpm at 4° C. for 10 min, and plasma was collected.
Time points for sample collection in G1 and G2 groups comprise 0, 5 min, 15 min, 30 min, 1 h, 2 h, 4 h, 6 h, 8 h and 24 h.
Before analysis and detection, all samples were stored at −80° C.
30 μL of each of plasma samples, standard curve samples and quality control samples was taken, and 200 μL of acetonitrile solution containing an internal standard was added. The resulting mixture was homogeneously mixed by vortex and centrifuged at 4° C. at 12000 rpm for 10 min. 170 μL of the supernatant was taken and placed to a 96-well plate, and LC-MS/MS analysis was performed, wherein the sample size was 0.2 μL.
The main pharmacokinetic parameters were analysed by a non-compartmental model using WinNonlin 8.0 software.

Regarding `C1=Cc2cccc(OC[C@H]3CNCCO3)c2C1.O=S(=O)(O)c1ccccc1` [Benzenesulfonate], in series [1], the Crystallinity entry was “Relatively”.
For `Cc1nnn([C@@H](c2ccccc2)C2CCN(C(=O)c3cc(-c4nc5cc(NC(=O)[C@@H]6C[C@@H]6F)ccc5o4)ccn3)CC2)n1` [Compound A, (1S,2S)-2-fluoro-N-(2-(2-(4-((R)-(5-methyl-2H-tetrazol-2-yl)(phenyl)methyl)piperidine-1-carbonyl)pyridin-4-yl)benzo[d]oxazol-5-yl)cyclopropane-1-carboxamide], in series [2], the bioavailability – broadly, dose-corrected exposure relative to a reference, in per cent – amounted to 26.1 ± 6.2%. For the same compound, in series [2] (iv, 2 mg/kg), the area under the curve (AUC) (as a rule, concentration integrated over time) worked out at 2010 ± 396 ng·h/mL; the Cmax (usually the peak of the concentration-time curve) is 1460 ± 134 ng/mL; the half-life (in general, the time in which the quantity being followed falls by half) was 0.897 ± 0.013 h. For the same compound, in series [2] (po, 10 mg/kg), the AUC came out at 2610 ± 620 ng·h/mL, the peak level (Cmax) was 715 ± 127 ng/mL, the Tmax (usually the time at which the peak concentration occurs) came out at 1.67 ± 0.58 h and the half-life is 1.04 ± 0.099 h.
`O=S(=O)(O)c1ccc2ccccc2c1` [Example 2-naphthalenesulfonate, 2-naphthalenesulfonate]: the Crystallinity entry in series [1] is listed as “High”.
With `Br` [Hydrobromide], the Crystallinity result in series [1] is “High”.

The record behind these values is patent US20240043416A1, “SALT AND CRYSTAL FORM OF HA INHIBITOR COMPOUND” (SICHUAN HAISCO PHARMACEUTICAL CO., LTD., priority 2021, published 2024).
